Assay results: patent publication US20240228488A1 (TAKEDA PHARMACEUTICAL COMPANY LIMITED, priority 2021, published 2024)
pEC50: −log10 of the molar value.

What was measured:
[1] = molecular target: human activated kallikrein enzyme (Homo sapiens, UniProt P03952); assay: Plasma kallikrein inhibition, fluorogenic PFR-AMC substrate, 500 pM activated kallikrein format; assay type: biochemical; details: 500 pM activated kallikrein, 300 uM PFR-AMC, 30 min preincubation, 10 min reaction; read-out: Primary Dose Response Assay: Average EC50
Sequence of human activated kallikrein enzyme (P03952 391-638 limits assumed): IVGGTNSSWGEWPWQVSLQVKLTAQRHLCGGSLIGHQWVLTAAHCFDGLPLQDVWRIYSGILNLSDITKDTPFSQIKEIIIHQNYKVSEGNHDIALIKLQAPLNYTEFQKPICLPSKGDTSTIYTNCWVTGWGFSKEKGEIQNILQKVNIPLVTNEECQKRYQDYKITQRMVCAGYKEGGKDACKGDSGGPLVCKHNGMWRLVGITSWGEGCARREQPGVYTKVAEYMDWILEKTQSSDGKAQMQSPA
Sequence of human activated kallikrein enzyme (P03952 20-390 partner limits assumed): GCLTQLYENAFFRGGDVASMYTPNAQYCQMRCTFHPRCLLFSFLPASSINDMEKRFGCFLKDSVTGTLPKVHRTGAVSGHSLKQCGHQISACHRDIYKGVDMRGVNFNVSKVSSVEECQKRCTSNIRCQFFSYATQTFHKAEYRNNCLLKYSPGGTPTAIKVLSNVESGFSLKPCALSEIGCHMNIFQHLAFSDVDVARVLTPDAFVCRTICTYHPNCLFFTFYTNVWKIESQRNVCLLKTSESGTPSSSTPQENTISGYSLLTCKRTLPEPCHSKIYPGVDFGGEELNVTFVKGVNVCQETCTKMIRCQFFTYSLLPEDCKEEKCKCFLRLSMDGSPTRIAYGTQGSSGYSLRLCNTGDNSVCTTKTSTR
Outline: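 500 pM enz + cpd, 30 min RT preinc; start w/ PFR-AMC 300 uM; 10 min RT; Ex380/Em460. Buffer: Tris 20 mM pH 7.5, EDTA 1 mM, NaCl 150 mM, PEG-400 0.1%, Triton 0.1%. EC50.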

plasma kallikrein = molecular target: T1, plasma kallikrein (Homo sapiens, UniProt P03952); assay: Neat human plasma assay, FXIIa contact pathway-activated, PFR-AMC substrate; assay type: biochemical; details: citrated human plasma 78% final, 10 nM human FXIIa, 100 μM PFR-AMC; read-out: Human Plasma Assay: IC90
T1 construct: from tissue
T1 sequence (P03952 391-638 limits assumed): as the sequence (P03952 391-638 limits assumed) above
T1 sequence (P03952 20-390 partner limits assumed): as the sequence (P03952 20-390 partner limits assumed) above
Outline: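 Citrated human plasma (78% final) with compound, contact-activated by 10 nM human FXIIa in pKal buffer pH 7.5, with 100 μM PFR-AMC. Fluorescence (360/480 nm) followed 5 min at room temperature; rates versus concentration fitted by 4-parameter equation for IC50/IC90.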

SMILES	pEC50 [1]	IC90 (plasma kallikrein) [nM]
Cc1ccnc([C@H]2C[C@@H]2C(=O)Nc2cc(OCc3cn4cc(C5CC5)ccc4n3)cnn2)n1 [Example 568, (1S,2S)-N-(5-((6-cyclopropylimidazo[1,2-a]pyridin-2-yl)methoxy)pyridazin-3-yl)-2-(4-methylpyrimidin-2-yl)cyclopropane-1-carboxamide]	> 9.00	1500 to 10000
Cc1ccnc([C@H]2C[C@@H]2C(=O)Nc2cc(N(C)Cc3cn4cc(C5CC5)cc(N5CC(=O)N(CCO)C5=O)c4n3)ncn2)n1 [Example 462, (1S,2S)-N-(6-(((6-cyclopropyl-8-(3-(2-hydroxyethyl)-2,4-dioxoimidazolidin-1-yl)imidazo[1,2-a]pyridin-2-yl)methyl)(methyl)amino)pyrimidin-4-yl)-2-(4-methylpyrimidin-2-yl)cyclopropane-1-carboxamide]	> 9.00	< 400
O=C(Nc1cc(NCc2cn3cc(C4CC4)ccc3n2)ccn1)[C@H]1C[C@@H]1c1cc(Cl)ccn1 (single isomer, unassigned) [Example I-270, rac-(1S*,2S*)-2-(4-chloropyridin-2-yl)-N-(4-(((6-cyclopropylimidazo[1,2-a]pyridin-2-yl)methyl)amino)pyridin-2-yl)cyclopropane-1-carboxamide]	> 9.00	1500 to 10000
O=C(Nc1cc(NCc2cn3cc(C4CC4)cc(C4(O)CNC4)c3n2)ccn1)[C@H]1C[C@@H]1c1cccc(Cl)c1 [Example 134, (1S,2S)-2-(3-chlorophenyl)-N-(4-(((6-cyclopropyl-8-(3-hydroxyazetidin-3-yl)imidazo[1,2-a]pyridin-2-yl)methyl)amino)pyridin-2-yl)cyclopropane-1-carboxamide]	> 9.00	< 400
O=C(Nc1cc(NCc2cn3cc(C4CC4)ccc3n2)ncn1)[C@H]1C[C@@H]1c1cccc(Cl)c1 (single isomer, unassigned) [Example 57]	8.00 to 9.00	> 48000
Cc1ccnc([C@H]2C[C@@H]2C(=O)Nc2nc(NCc3cn4cc(C5CC5)cc(N5CC(=O)N(C)C5=O)c4n3)cc(C3CC3)n2)n1 (racemic) [Example 539, rac-(1S*,2S*)—N-(4-cyclopropyl-6-(((6-cyclopropyl-8-(3-methyl-2,4-dioxoimidazolidin-1-yl)imidazo[1,2-a]pyridin-2-yl)methyl)amino)pyrimidin-2-yl)-2-(4-methylpyrimidin-2-yl)cyclopropane-1-carboxamide]	> 9.00	1500 to 10000
CN1CCN(c2cc(C3CC3)cn3cc(COc4ccnc(NC(=O)[C@H]5C[C@@H]5c5cccc(Cl)c5)c4)nc23)CC1 [Example 565, (1S,2S)-2-(3-chlorophenyl)-N-(4-((6-cyclopropyl-8-(4-methylpiperazin-1-yl)imidazo[1,2-a]pyridin-2-yl)methoxy)pyridin-2-yl)cyclopropane-1-carboxamide]	8.00 to 9.00	1500 to 10000
Cc1ncnc([C@H]2C[C@@H]2C(=O)Nc2cc(NCc3cn4cc(C5CC5)cc(N5CC(=O)N(C)C5=O)c4n3)ncn2)n1 (racemic) [Example 495, rac-(1S*,2S*)-N-(6-(((6-cyclopropyl-8-(3-methyl-2,4-dioxoimidazolidin-1-yl)imidazo[1,2-a]pyridin-2-yl)methyl)amino)pyrimidin-4-yl)-2-(4-methyl-1,3,5-triazin-2-yl)cyclopropane-1-carboxamide]	8.00 to 9.00	400 to 1500
O=C(Nc1cc(NCc2cn3cc(C4CC4)cc(N4CCNCC4)c3n2)ccn1)[C@H]1C[C@@H]1c1cccc(Cl)c1 [Example 132, (1S,2S)-2-(3-chlorophenyl)-N-(4-(((6-cyclopropyl-8-(piperazin-1-yl)imidazo[1,2-a]pyridin-2-yl)methyl)amino)pyridin-2-yl)cyclopropane-1-carboxamide]	> 9.00	400 to 1500
O=C(Nc1cc(NCc2cn3cc(C4CC4)cc(C4(F)COC4)c3n2)ccn1)[C@H]1C[C@@H]1c1cccc(Cl)c1 (racemic) [Example 294, rac-(1S*,2S*)-2-(3-chlorophenyl)-N-(4-(((6-cyclopropyl-8-(3-fluorooxetan-3-yl)imidazo[1,2-a]pyridin-2-yl)methyl)amino)pyridin-2-yl)cyclopropane-1-carboxamide]	> 9.00	10000 to 48000
COc1ccnc([C@H]2C[C@@H]2C(=O)Nc2cc(N[C@H](C)c3cn4cc(C5CC5)cc(N5CC(=O)N(C)C5=O)c4n3)ncn2)n1 (relative stereo) [Example 529, rac-(1S*,2S*)-N-(6-(((R)-1-(6-cyclopropyl-8-(3-methyl-2,4-dioxoimidazolidin-1-yl)imidazo[1,2-a]pyridin-2-yl)ethyl)amino)pyrimidin-4-yl)-2-(4-methoxypyrimidin-2-yl)cyclopropane-1-carboxamide]	> 9.00	400 to 1500
O=C(Nc1cc(NCc2cn3cc(C4CC4)ccc3n2)nc(=O)[nH]1)[C@H]1C[C@@H]1c1cccc(Cl)c1 [Example 296, (1S,2S)-2-(3-chlorophenyl)-N-(6-(((6-cyclopropylimidazo[1,2-a]pyridin-2-yl)methyl)amino)-2-oxo-2,3-dihydropyrimidin-4-yl)cyclopropane-1-carboxamide]	> 9.00	1500 to 10000
O=C(Nc1nsc(NCc2cn3cc(C4CC4)ccc3n2)n1)[C@H]1C[C@@H]1c1cc(Cl)ccn1 (racemic) [Example 614]	8.00 to 9.00	10000 to 48000
CN1C(=O)CN(c2cc(C3CC3)cn3cc([C@H]4C[C@H](O)CN4c4cc(NC(=O)[C@H]5C[C@@H]5c5cc(Cl)ccn5)ncn4)nc23)C1=O [Example 478, (1S,2S)-2-(4-chloropyridin-2-yl)-N-(6-((2R,4S)-2-(6-cyclopropyl-8-(3-methyl-2,4-dioxoimidazolidin-1-yl)imidazo[1,2-a]pyridin-2-yl)-4-hydroxypyrrolidin-1-yl)pyrimidin-4-yl)cyclopropane-1-carboxamide]	> 9.00	400 to 1500
O=C(Nc1cc(NCc2cn3cc(C4CC4)cc(N4C[C@@H]5C[C@@H]5C4=O)c3n2)ncn1)[C@H]1C[C@@H]1c1cccc(Cl)c1 (racemic) [Example 457, rac-(1S,2S)-2-(3-chlorophenyl)-N-(6-(((6-cyclopropyl-8-((1R*,5S*)-2-oxo-3-azabicyclo[3.1.0]hexan-3-yl)imidazo[1,2-a]pyridin-2-yl)methyl)amino)pyrimidin-4-yl)cyclopropane-1-carboxamide]	8.00 to 9.00	400 to 1500
COCCOCCN1C(=O)CN(c2cc(C3CC3)cn3cc(CNc4cc(NC(=O)[C@H]5C[C@@H]5c5nccc(C)n5)ncn4)nc23)C1=O [Example 382, (1S,2S)-N-(6-(((6-cyclopropyl-8-(3-(2-(2-methoxyethoxy)ethyl)-2,4-dioxoimidazolidin-1-yl)imidazo[1,2-a]pyridin-2-yl)methyl)amino)pyrimidin-4-yl)-2-(4-methylpyrimidin-2-yl)cyclopropane-1-carboxamide]	> 9.00	< 400
CN(C)C1CCN(c2cc(C3CC3)cn3cc(CNc4cc(NC(=O)[C@H]5C[C@@H]5c5cccc(Cl)c5)ncn4)nc23)C1 (mixture of isomers) [Example I-13, (1S,2S)-2-(3-chlorophenyl)-N-(6-(((6-cyclopropyl-8-(3-(dimethylamino)pyrrolidin-1-yl)imidazo[1,2-a]pyridin-2-yl)methyl)amino)pyrimidin-4-yl)cyclopropane-1-carboxamide]	8.00 to 9.00	1500 to 10000
